Values quoted from earlier work in patent publication US8309108B2, “Intranasal compositions” (Archimedes Development Limited, priority 2007, dated 2012).
Structures can show the parent of a compound that is named as a salt.

Details: room temperature

Saturated aqueous solubility: around 20 mg/ml
Compound: CN1CCc2cccc3c2C1Cc1ccc(O)c(O)c1-3 (stereo not shown) [apomorphine hydrochloride, 6aβ-aporphine-10,11-diol]
